# Data published in PubChem BioAssay (NCI).
# “And” between values parts separate entries of the source, which are not always exact repeats. Equal entries are not always repeated.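 Briefly, cells in 96-well plates were exposed to five compound concentrations for 48 h, and endpoints were estimated by linear interpolation. Here, GI50 denotes the concentration required for 50% inhibition of growth. TGI marks complete inhibition of growth.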
# Assays:
# Assay in all cases: growth of human tumour cells (NCI), 48 h
# [1] = system: ACHN renal
# [2] = system: NCI-H23 lung
# [3] = system: OVCAR-8 ovarian
# [4] = system: HS 578T breast
# [5] = system: K-562 leukemia
# [6] = system: UACC-257 melanoma
# [7] = system: MOLT-4 leukemia
# [8] = system: EKVX NSCLC
# [9] = system: CAKI-1 renal
# [10] = system: BT-549 breast
Compound,TGI [1],TGI [2],TGI [3],TGI [4],TGI [5],TGI [6],TGI [7],TGI [8],TGI [9],GI50 [4],GI50 [5],GI50 [10],TGI [10],GI50 [1],GI50 [2],GI50 [3],GI50 [7],GI50 [8],GI50 [9],GI50 [6]
COc1ccc(C(OCC2OC(n3ccc(NC(=O)c4ccccc4)nc3=O)C(O)C2O)(c2ccccc2)c2ccccc2)cc1 (stereo unspecified),7.59 µM,3 µM,3.22 µM,4.86 µM,5.58 µM,21.1 µM,4.17 µM,6.1 µM,5.79 µM,–,–,–,–,–,–,–,–,–,–,–
CCOC(=O)C(=O)Nc1c(CC)cccc1C(C)C,> 100 µM,> 100 µM,> 100 µM,–,–,> 100 µM,–,> 100 µM,> 100 µM,–,–,–,–,–,–,–,–,–,–,–
C[Si](C)(C)OC1(C#N)C2C3CC4C2C(=O)C2C4C3C21 (stereo unspecified),> 100 µM,–,> 100 µM,–,> 100 µM,> 100 µM,> 100 µM,–,> 100 µM,–,–,–,–,–,–,–,–,–,–,–
CS(=O)(=O)c1ccc(C(=O)Nc2ccc(Cl)c(-c3ccccn3)c2)c(Cl)c1,> 100 µM and 23.5 µM,> 100 µM and 17.2 µM,> 100 µM and 25.5 µM,> 100 µM,> 100 µM and 45.7 µM,–,> 100 µM and 14.7 µM,> 100 µM and 14.9 µM,–,–,–,–,–,–,–,–,–,–,–,–
Nn1c(-c2ccccc2Cl)nc2ccccc2c1=O,> 100 µM,> 100 µM,> 100 µM,–,> 100 µM,> 100 µM,> 100 µM,> 100 µM,> 100 µM,–,–,–,–,–,–,–,–,–,–,–
O=C(/C(=C/c1ccc([N+](=O)[O-])cc1)c1ccccc1)c1ccccc1,–,–,–,> 100 µM,> 100 µM,–,–,–,–,2.74 µM,3.08 µM,2570 nM,7.12 µM,–,–,–,–,–,–,–
COC1CC(OS(=O)(=O)c2ccc(C)cc2)C(OC(=O)c2ccccc2)C(C)O1 (stereo unspecified),> 100 µM,> 100 µM,> 100 µM,–,> 100 µM,> 10 µM,> 100 µM,> 100 µM,> 100 µM,–,> 100 µM,–,–,> 100 µM,> 100000 nM,> 100 µM,> 100 µM,> 100 µM,> 100 µM,–
CCC1CN2CCc3cc(OC)c(OC)cc3C2CC1CC1c2cc(OC)c(OC)cc2CCN1C(=O)C1CCCN1C(=O)OCc1ccccc1 (stereo unspecified),32.1 µM,32.7 µM,31.7 µM,–,36 µM,30.8 µM,–,43.3 µM,47.3 µM,–,–,–,–,–,–,–,–,–,–,–
Cn1cnc2nc(Cl)nc(NC(C)(C)C(C)(C)O)c21,> 100 µM,> 100 µM,> 100 µM,–,> 100 µM,> 100 µM,> 100 µM,> 100 µM,> 100 µM,–,–,–,–,–,–,–,–,–,–,–
O=C1c2ccccc2-c2c1c1ccc([N+](=O)[O-])cc1c(=O)n2CCCBr,> 100 µM,5.76 µM,> 100 µM,–,> 100 µM,> 100 µM,–,> 100 µM,> 100 µM,–,> 100 µM,> 100000 nM,> 100 µM,> 100 µM,1100 nM,> 100 µM,–,> 100 µM,3.23 µM,> 100 µM
CCOC(=O)C1Oc2ccc([N+](=O)[O-])c3c2C1(O)CCC3 (stereo unspecified),> 100 µM,> 100 µM,> 100 µM,–,> 100 µM,> 100 µM,> 100 µM,> 100 µM,–,–,–,–,–,–,–,–,–,–,–,–
COc1cc2c(cc1OC(=O)CC(C)O)C1C(OC2=O)C(OC(C)=O)C=C2CCN(C)[C@H]21 (stereo partly specified),> 100 µM,> 100 µM,> 100 µM,–,> 100 µM,> 100 µM,> 100 µM,> 100 µM,> 100 µM,–,–,–,–,–,–,–,–,–,–,–
CCCCNCC(=O)O[C@]1(CC)C(=O)OCc2c1cc1n(c2=O)Cc2cc3ccccc3nc2-1,3.77 µM,0.877 µM,–,> 100 µM,> 48.7 µM,8.19 µM,0.232 µM,> 100 µM,–,–,–,–,8.36 µM,–,–,–,–,–,–,–
O=C(O)C1(P(=O)(O)O)CC1,> 100 µM,> 100 µM,> 100 µM,–,> 100 µM,> 100 µM,> 100 µM,> 100 µM,> 100 µM,–,–,–,–,–,–,–,–,–,–,–
O=C1C(=O)N(c2ccc(Cl)c(Cl)c2)C(=O)C(=O)C1c1nc2ccccc2s1,> 100 µM,> 100 µM,> 100 µM,–,–,> 100 µM,> 100 µM,> 100 µM,> 100 µM,–,–,–,–,–,–,–,–,–,–,–
COc1cc2c(c(OC)c1OC)-c1ncc3cc(OC)c(OC)c(OC)c3c1C2,78.7 µM,–,34.7 µM,65.6 µM,50.8 µM,27.2 µM,–,66.7 µM,74.3 µM,29.7 µM,15.3 µM,–,–,24 µM,–,6.09 µM,–,23.1 µM,22.5 µM,12.1 µM
Cc1c(C#N)c(=O)[nH]c(=O)n1CCN1CCN(C(=O)NCCCCCCNC(=O)N2CCN(CCn3c(C)c(C#N)c(=O)[nH]c3=O)CC2)CC1,> 100 µM,> 100 µM,> 100 µM,–,> 100 µM,> 100 µM,> 100 µM,> 100 µM,> 100 µM,–,–,–,–,–,–,–,–,–,–,–
O=S(=O)(c1ccccc1)C(CN1CCCCC1)S(=O)(=O)c1ccccc1,> 100 µM,> 100 µM,> 100 µM,–,> 100 µM,> 100 µM,> 100 µM,–,> 100 µM,–,–,–,–,–,–,–,–,–,–,–
CS(=O)(=O)Oc1cccc(/C=N/N=C(\N)NO)c1,66.1 µM,> 100 µM,> 100 µM,–,> 100 µM,> 100 µM,–,> 100 µM,> 100 µM,–,–,–,–,–,–,–,–,–,–,–
CCCCCCCCCCCCCCCCCC(=O)OCC(COC1OC(COP(=O)(O)O)C(O)C(O)C1O)OC(=O)CCCCCCCCCCCCCCCCC (stereo unspecified),12.7 µM,15 µM,17.8 µM,17.4 µM,18.7 µM,16.6 µM,17.3 µM,16.4 µM,16.9 µM,–,–,–,–,–,–,–,–,–,–,–
CCCCCCCCCCCC(=O)OCCOCCOCCOCCOCCOCc1ccc(OC)cc1,> 100 µM,> 100 µM,> 100 µM,–,> 100 µM,> 100 µM,> 100 µM,> 100 µM,> 100 µM,–,–,–,–,–,–,–,–,–,–,–
CN(C)c1nc(=Nc2ccc3ccccc3c2)ss1,> 100 µM,–,> 100 µM,–,> 100 µM,66.8 µM,20.9 µM,–,> 100 µM,–,–,–,–,–,–,–,–,–,–,–
CCOC(=O)C(C)(c1cn(C)c2ccccc12)c1cn(C)c2ccccc12,> 100 µM,> 100 µM,> 100 µM,–,> 100 µM,> 100 µM,> 100 µM,> 100 µM,> 100 µM,–,–,–,–,–,–,–,–,–,–,–
COc1ccc(OC)c(NC(=O)CCC/C(CC(=O)c2ccc(O)c(OC)c2)=N\NC(=O)C[N+](C)(C)C)c1,> 100 µM,> 100 µM,> 100 µM,–,> 100 µM,> 100 µM,> 100 µM,> 100 µM,> 100 µM,–,–,–,–,–,–,–,–,–,–,–
